# Where two headings read alike, the source gives them in different places.
# Experiments:
# [1] = Procedure, shortened: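 LCO probes at 3 μM mixed with serial two-fold carbohydrate dilutions in water (10–0.039 or 5–0.019 mg/ml), run in triplicate. Excitation scanned 300–500 nm with emission at 545 nm; detection based on reproducible λmax or RFU shift against the no-carbohydrate control, with linear regression of RFU on concentration.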
# [2] = for RFU change (Correlation analysis): probe-specific excitation λ, emission 545 nm
# Procedure, shortened: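 Each LCO probe at 3 μM was added to two-fold serial dilutions of carbohydrate in dH2O (10–0.039 mg/ml for β-1,3-glucan, cellulose, chitin; 5–0.019 mg/ml for the others), run in triplicate. Excitation spectra were scanned 300–500 nm with emission at 545 nm. Detection was a reproducible λmax and/or RFU shift versus negative control, with linear regression of RFU against concentration.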
# [3] = for RFU change (Correlation analysis): probe-specific excitation λ, emission 545 nm; remark: listed apart in the source
# Procedure, shortened: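 LCO probes at 3 μM mixed with serial two-fold dilutions of carbohydrate in dH2O (10–0.039 or 5–0.019 mg/ml, depending on carbohydrate), in triplicate. Excitation scanned 300–500 nm or fixed per probe (λmax or lowest background), emission at 545 nm. Detection taken as reproducible λmax/RFU shift vs no-carbohydrate control; RFU regressed linearly on concentration.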
# [4] = remark: listed apart in the source
# Procedure, shortened: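 LCO probes (3 μM) were added to serial two-fold dilutions of carbohydrate suspensions in dH2O, with excitation scanned 300–500 nm and emission at 545 nm. Detection was a reproducible λmax and/or RFU change versus no-carbohydrate control. RFU was regressed linearly against concentration at the λmax or the lowest-background excitation.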
# [5] = remark: listed apart in the source
# Procedure, shortened: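 3 μM of each LCO probe was added to serial two-fold carbohydrate dilutions in water (10–0.039 or 5–0.019 mg/ml). Excitation spectra were scanned 300–500 nm with emission at 545 nm, in triplicate. Detection was defined as a reproducible shift in λmax and/or RFU versus negative control, with linear regression of RFU against concentration.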
# [6] = for RFU change (Correlation analysis): probe-specific excitation λ, emission 545 nm; for Gradient Parameters (gradient of regression line) / Linear relationship / Quality of Gradient: linear regression
# Procedure, shortened: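 LCO probes at 3 μM mixed with serial twofold carbohydrate dilutions in dH2O (10–0.039 or 5–0.019 mg/ml, depending on carbohydrate). Excitation scanned 300–500 nm, emission read at 545 nm; detection defined as reproducible shift in λmax and/or RFU relative to negative control, with linear regression of RFU against concentration.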
# [7] = system: biofilm (curli, cellulose) of S. enteritidis wt strain 3934 and isogenic mutants; details: 2 μg/ml LCO, unprocessed cultures, excitation 300-500 nm, emission 545 nm
# Protocol: A fresh overnight culture of the clinically derived S. enteritidis wt strain 3934 and isogenic mutants (ΔbscA; ΔcsgA and ΔcsgD) was inoculated into fresh LB and cultivated at 37° C. to OD600=0.6. […] 50 μl of each culture was next inoculated in triplicates into separate wells of 96-well plates and incubated at 28° C. for 48 hours.
# After removing the biofilm cultures from the incubator, no processing steps were implemented before the detection of LCO signals. […] Emission spectra for curli bound LCOs was collected by reading the emission signal between 500-700 nm when the sample was excited at 405 nm. Emission spectra for cellulose bound LCOs was collected by reading the emission signal between 520-700 nm when the sample was excited at 500 nm.
# [8] = system: biofilm of S. enteritidis wt strain 3934 and isogenic mutants ΔbscA, ΔcsgA, ΔcsgD; assay: LCO assay for fluorescence confocal analysis of biofilm and biofilm morphology; type: cell-based, Salmonella enteritidis; details: 2 μg/ml LCO, fixed and washed cover-slip biofilm
# Source text: Fluorescence confocal analysis (left side) and phase contrast analysis (right side) of the same slide are shown side by side.
# Glass cover-slips were introduced to the wells of a 6-well plate (according to the set-up shown in FIG. 2A) to provide surfaces for biofilm formation, which at the end of experiment could be easily removed for microscope analysis. To prepare for the biofilm experiment, individual cultures of S. enteritidis wt strain 3934 and isogenic mutants ΔbscA, ΔcsgA, and ΔcsgD were grown in LB medium in flasks overnight. Each culture was diluted 100-fold in fresh LB and cultivated in a shaking incubator (230 rpm) at 37° C. to OD600=0.6. Cultures were diluted to a culture density of 10^5 CFU/ml in LB without salt and dispensed into the cover-slip containing 6 well plates in 8 ml aliquots. After incubating the plates for 48 h at 28° C., glass cover-slips were removed and washed twice with PBS before fixation in 4 ml of 4% formaldehyde for 1 h. […] PBS functioned as the negative control, used to assess the level of auto-fluorescence. Treated slides were then washed twice with PBS and mounted with Vectashield® for fluorescence-based confocal laser scanning microscopy analysis. Specifically, the edge of the biofilm formed at the liquid air interface was visualized using the appropriate fluorescence filters. […] The right side is an overlay of an optical inspection of bacterial presence by phase contrast with LCO fluorescence. Phase contrast is a traditional method for visual confirmation of biofilm attachment on surfaces.
# [9] = glucose concentration vs RFU, linear regression
# [10] = Chitin 10-[…], 3 μM probe, spectral analysis, Excitation 300-500, Emission 545
# [11] = cellulose concentration vs RFU, linear regression
# [12] = chitin concentration vs RFU, linear regression
# [13] = β-1,3-glucan concentration vs RFU, linear regression
# [14] = Cellulobiose 5-0.019 mg/ml, 3 μM probe, spectral analysis, Excitation 300-500, Emission 545
# [15] = amylose concentration vs RFU, linear regression
# [16] = cellulobiose concentration vs RFU, linear regression
# [17] = sodium alginate concentration vs RFU, linear regression
# [18] = Chondroitin Sulfate A 5-0.019 mg/ml, 3 μM probe, spectral analysis, Excitation 300-500, Emission 545
# [19] = Chondroitin Sulfate A concentration vs RFU, linear regression
# [20] = Glycogen 5-0.019 mg/ml, 3 μM probe, spectral analysis, Excitation 300-500, Emission 545
compound,measurement,setting,value
"O=C(Cc1cc(-c2cccs2)sc1-c1ccc(-c2sc(-c3cccs3)cc2CC(=O)N[C@@H](Cc2ccc([O-])cc2)C(=O)[O-])s1)N[C@@H](Cc1ccc([O-])cc1)C(=O)[O-].[Na+].[Na+].[Na+].[Na+] [pHTA-Tyr, penta Hydrogen Thiophene Acetic acid Tyrosine]",RFU change (Correlation analysis),"[1]; Glucose 5-0.019 mg/ml, 3 μM probe, probe-specific excitation λ, emission 545 nm",Increases
same,RFU change (Signal deviation with increasing [Carbohydrate]),"[1]; Glucose 5-0.019 mg/ml, 3 μM probe, spectral analysis, Excitation 300-500, Emission 545",Increases
same,carbohydrate can be detected and/or differentiated by the LCO,"[1]; Glucose, conclusion from change in signal magnitude and/or shift in λmax",can be detected and/or differentiated
same,Gradient Parameters (gradient of regression line),[1]; [9],799.4 ± 95.1
same,Linear relationship,[1]; [9],Significant
same,Quality of Gradient,[1]; [9],Positive
same,Sensitivity,[1]; to glucose,Yes
same,RFU change (Correlation analysis),"[2]; Cellulose 10-[…], 3 μM probe",Unclear
same,RFU change (Signal deviation with increasing [Carbohydrate]),"[2]; Cellulose 10-[…], 3 μM probe, spectral analysis, Excitation 300-500, Emission 545",Unclear
same,RFU change (Correlation analysis),"[2]; Chitin 10-[…], 3 μM probe",Increases
same,RFU change (Signal deviation with increasing [Carbohydrate]),[2]; [10],Increases
same,λmax change,[2]; [10],Redshift
same,carbohydrate can be detected and/or differentiated by the LCO,"[2]; Chitin, conclusion from change in signal magnitude and/or shift in λmax",can be detected and/or differentiated
same,Gradient Parameters (gradient of regression line),[2]; [11],−51.4 ± 45.0
same,Quality of Gradient,[2]; [11],Horizontal
same,Gradient Parameters (gradient of regression line),[2]; [12],972.3 ± 109.7
same,Linear relationship,[2]; [12],Significant
same,Quality of Gradient,[2]; [12],Positive
same,Sensitivity,[2]; to cellulose,No
same,Sensitivity,[2]; to chitin,Yes
same,Sensitivity,"[2]; to β-1,3-glucan",No
same,RFU change (Correlation analysis),"[2]; β-1,3-glucan 10-[…], 3 μM probe",Decrease
same,RFU change (Signal deviation with increasing [Carbohydrate]),"[2]; β-1,3-glucan 10-[…], 3 μM probe, spectral analysis, Excitation 300-500, Emission 545",Decrease
same,Gradient Parameters (gradient of regression line),[2]; [13],−53.2 ± 47.5
same,Quality of Gradient,[2]; [13],Horizontal
same,RFU change (Correlation analysis),"[3]; Amylose 5-0.019 mg/ml, 3 μM probe",Unclear
same,RFU change (Signal deviation with increasing [Carbohydrate]),"[3]; Amylose 5-0.019 mg/ml, 3 μM probe, spectral analysis, Excitation 300-500, Emission 545",Unclear
same,RFU change (Correlation analysis),"[3]; Cellulobiose 5-0.019 mg/ml, 3 μM probe",Increases
same,RFU change (Signal deviation with increasing [Carbohydrate]),[3]; [14],Increases
same,λmax change,[3]; [14],No change
same,carbohydrate can be detected and/or differentiated by the LCO,"[3]; Cellulobiose, conclusion from change in signal magnitude and/or shift in λmax",can be detected and/or differentiated
same,Gradient Parameters (gradient of regression line),[3]; [15],−133.1 ± 128.5
same,Quality of Gradient,[3]; [15],Horizontal
same,Gradient Parameters (gradient of regression line),[3]; [16],56.7 ± 16
same,Linear relationship,[3]; [16],Significant
same,Quality of Gradient,[3]; [16],Positive
same,Sensitivity,[3]; to amylose,No
same,Sensitivity,[3]; to cellulobiose,Yes
same,RFU change (Correlation analysis),"[4]; Sodium alginate 5-0.019 mg/ml, 3 μM probe, probe-specific excitation λ, emission 545 nm",Unclear
same,RFU change (Signal deviation with increasing [Carbohydrate]),"[4]; Sodium alginate 5-0.019 mg/ml, 3 μM probe, spectral analysis, Excitation 300-500, Emission 545",Increases
same,Gradient Parameters (gradient of regression line),[4]; [17],30.9 ± 175.5
same,Quality of Gradient,[4]; [17],Horizontal
same,Sensitivity,[4]; to sodium alginate,No
same,RFU change (Correlation analysis),"[5]; Chondroitin Sulfate A 5-0.019 mg/ml, 3 μM probe, probe-specific excitation λ, emission 545 nm",Increases
same,RFU change (Signal deviation with increasing [Carbohydrate]),[5]; [18],Increases
same,λmax change,[5]; [18],No change
same,Gradient Parameters (gradient of regression line),[5]; [19],163.3 ± 61.5
same,Linear relationship,[5]; [19],Significant
same,Quality of Gradient,[5]; [19],Positive
same,carbohydrate can be detected and/or differentiated by the LCO,"[5]; Chondroitin sulfate A, conclusion from change in signal magnitude and/or shift in λmax",can be detected and/or differentiated
same,Sensitivity,[5]; to Chondroitin Sulfate A,Yes
same,RFU change (Correlation analysis),"[6]; Glycogen 5-0.019 mg/ml, 3 μM probe",Decreases
same,RFU change (Signal deviation with increasing [Carbohydrate]),[6]; [20],Decreases
same,λmax change,[6]; [20],Redshift
same,carbohydrate can be detected and/or differentiated by the LCO,"[6]; Glycogen, conclusion from change in signal magnitude and/or shift in λmax",can be detected and/or differentiated
same,RFU change (Correlation analysis),"[6]; Heparin 5-0.019 mg/ml, 3 μM probe",Increases
same,RFU change (Signal deviation with increasing [Carbohydrate]),"[6]; Heparin 5-0.019 mg/ml, 3 μM probe, spectral analysis, Excitation 300-500, Emission 545",Increases
same,Gradient Parameters (gradient of regression line),[6]; glycogen concentration vs RFU,−2062 ± 216.6
same,Linear relationship,[6]; glycogen concentration vs RFU,Significant
same,Quality of Gradient,[6]; glycogen concentration vs RFU,Negative
same,Gradient Parameters (gradient of regression line),[6]; heparin concentration vs RFU,74.5 ± 80.7
same,Linear relationship,[6]; heparin concentration vs RFU,Not Significant
same,Quality of Gradient,[6]; heparin concentration vs RFU,Horizontal
same,Sensitivity,[6]; to glycogen,Yes
same,Sensitivity,[6]; to heparin,No
hepta Hydrogen Thiophene Acetic Acid [h-HTAA],differentiation of biofilm morphologies of isogenic mutants by excitation spectra,[7],did not differentiate biofilm morphologies
same,fluorescent signal from the LCO on biofilm versus phase contrast microscopy,[8],coincides with visible bacteria aggregates
